Assay type in all cases: in vivo
Settings in all cases: applied at 3-5 leaf stage, scored visually approx. 4-6 weeks after application, means of 2-3 repetitions, g of AS/ha: (A1 + B2)^S 12.5 + 6.25; Azur 800 + 40 + 200; B2 5; E) 60

One series has as its system Winter wheat. The experiment in a line: Outdoor trial: compatibility, % damage to crop. As for the experimental part:
(§1) Herbicidal action and compatibility in outdoor trials
(§2) The plants were sown and cultivated (fertilization, irrigation, etc.) as customary in practice on trial fields with naturally occurring weeds.
(§3) The experiments were designed as random tests of 2 plots of 5-10 m^2, with 2-3 repetitions. Application was carried out using plot sprayers at the 3-5 leaf stage. The test substances were made up in 100-600 liters of water/ha and applied with a pressure of 3 bar.
(§4) After the treatment (approx. 4-6 weeks after application), the herbidical activity of the active compounds or active compound mixtures was scored visually by comparing the treated plants with the untreated controls. The damage and development of all above-ground parts of the plants was recorded. Scoring was done on a percentage scale (100% action=all plants dead; 50% action=50% of the plants and green plant parts dead; 0% action=no discernible action or damage to crop species.
(§5) In the tables below, the results are given as the means of 2-3 repetitions, and the activity achieved when active compounds (A+B) and C) were applied independently is stated in brackets.

A further series relates to Avena fatua. Briefly: Outdoor trial: herbicidal action, visual score. As for the experimental part:
as §1, §2, §3, §4, §5

The next series deals with Galium aparine. The experiment in a line: Outdoor trial: herbicidal action, visual score. As for the experimental part:
as §1, §2, §3, §4, §5

As for `COC(=O)c1ccc(I)cc1S(=O)(=O)[N-]C(=O)Nc1nc(C)nc(OC)n1.[Na+]` [B2, iodosulfuron-methyl-sodium], the “Winter wheat % Damage” value in the series on Winter wheat came to 0%. In the series on Avena fatua, the “% Activity Avena fatua” value worked out at 68%. Besides, the “% Activity Galium aparine” value in the series with Galium aparine is given as 25%.

As for `CCOC(=O)[C@@H](C)Oc1ccc(Oc2nc3ccc(Cl)cc3o2)cc1` [E), fenoxaprop-(P)-ethyl], the “% Activity Avena fatua” value in the series with Avena fatua is 70) %. Also, the “% Activity Galium aparine” value in the series on Galium aparine is reported as 0) %.

The values above are taken from patent US20030181333A1, “Herbicide combinations comprising specific sulfonylureas” (Bayer CropScience GmbH, priority 2002, published 2003).
